# Test results from ChEMBL document CHEMBL5465560, “Selectivity Literature for EUbOPEN Chemogenomic Library” (2024).
# Experiments:
# [1] = biological target: T1, Dual specificity mitogen-activated protein kinase kinase 6 (Homo sapiens) (UniProt P52564); experiment: Selectivity interaction (KinomeScan (DiscoverX)) EUB0001079a MAP2K6; settings: at 1 µM
# T1 sequence (whole entry): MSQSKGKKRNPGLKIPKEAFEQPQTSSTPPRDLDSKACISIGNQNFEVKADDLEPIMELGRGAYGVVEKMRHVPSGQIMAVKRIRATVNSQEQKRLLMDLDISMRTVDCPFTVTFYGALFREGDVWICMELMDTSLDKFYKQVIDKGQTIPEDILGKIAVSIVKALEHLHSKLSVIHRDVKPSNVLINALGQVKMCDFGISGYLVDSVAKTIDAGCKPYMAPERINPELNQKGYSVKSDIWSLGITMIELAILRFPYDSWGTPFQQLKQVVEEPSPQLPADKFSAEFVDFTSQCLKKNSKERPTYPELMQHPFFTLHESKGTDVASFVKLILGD
# [2] = biological target: Sodium-dependent noradrenaline transporter (Homo sapiens, UniProt P23975); experiment: Selectivity interaction (GPCR panel (PDSP screen)) EUB0001079a SLC6A2; settings: at 10 µM
# Chain of Sodium-dependent noradrenaline transporter (P23975 whole entry): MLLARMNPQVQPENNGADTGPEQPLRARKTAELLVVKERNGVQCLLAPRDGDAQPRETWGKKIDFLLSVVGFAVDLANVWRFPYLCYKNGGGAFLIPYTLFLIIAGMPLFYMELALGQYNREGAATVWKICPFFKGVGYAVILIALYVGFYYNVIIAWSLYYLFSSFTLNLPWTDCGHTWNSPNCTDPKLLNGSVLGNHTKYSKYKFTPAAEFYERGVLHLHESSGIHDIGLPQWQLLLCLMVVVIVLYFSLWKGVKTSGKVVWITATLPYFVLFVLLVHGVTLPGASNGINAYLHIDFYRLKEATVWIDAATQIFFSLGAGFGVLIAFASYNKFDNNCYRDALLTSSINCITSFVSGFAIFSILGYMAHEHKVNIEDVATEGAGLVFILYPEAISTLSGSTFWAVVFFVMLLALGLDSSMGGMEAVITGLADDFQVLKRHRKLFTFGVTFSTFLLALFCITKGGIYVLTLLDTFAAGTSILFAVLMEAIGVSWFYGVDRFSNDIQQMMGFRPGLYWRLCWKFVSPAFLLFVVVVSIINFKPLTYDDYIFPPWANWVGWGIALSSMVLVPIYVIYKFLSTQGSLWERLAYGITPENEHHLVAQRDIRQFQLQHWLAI
# [3] = biological target: Phosphatidylinositol 4-phosphate 5-kinase type-1 alpha (Homo sapiens) (UniProt Q99755); experiment: Selectivity interaction (KinomeScan (DiscoverX)) EUB0000618a PIP5K1A; settings: at 10 µM
# Chain of Phosphatidylinositol 4-phosphate 5-kinase type-1 alpha (Homo sapiens) (Q99755 whole entry): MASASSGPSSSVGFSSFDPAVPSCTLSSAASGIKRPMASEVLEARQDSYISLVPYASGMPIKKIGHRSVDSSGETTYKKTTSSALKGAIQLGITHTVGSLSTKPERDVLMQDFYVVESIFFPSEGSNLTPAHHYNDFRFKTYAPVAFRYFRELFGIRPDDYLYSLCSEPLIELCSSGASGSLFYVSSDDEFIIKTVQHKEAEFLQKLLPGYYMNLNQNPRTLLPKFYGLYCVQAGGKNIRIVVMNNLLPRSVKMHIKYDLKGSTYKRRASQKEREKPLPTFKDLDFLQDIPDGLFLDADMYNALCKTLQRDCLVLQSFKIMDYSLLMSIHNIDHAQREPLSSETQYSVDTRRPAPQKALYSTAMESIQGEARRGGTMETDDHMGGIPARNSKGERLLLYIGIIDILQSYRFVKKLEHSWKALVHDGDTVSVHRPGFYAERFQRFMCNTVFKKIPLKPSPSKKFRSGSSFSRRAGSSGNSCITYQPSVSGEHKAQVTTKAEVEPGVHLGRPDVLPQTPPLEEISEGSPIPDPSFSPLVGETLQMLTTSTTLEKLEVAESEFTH
# [4] = biological target: T2, Inhibitor of nuclear factor kappa-B kinase subunit beta (Homo sapiens) (UniProt O14920); experiment: Selectivity interaction (KinomeScan (DiscoverX)) EUB0001619a IKBKB; settings: at 1 µM
# T2 sequence (whole entry): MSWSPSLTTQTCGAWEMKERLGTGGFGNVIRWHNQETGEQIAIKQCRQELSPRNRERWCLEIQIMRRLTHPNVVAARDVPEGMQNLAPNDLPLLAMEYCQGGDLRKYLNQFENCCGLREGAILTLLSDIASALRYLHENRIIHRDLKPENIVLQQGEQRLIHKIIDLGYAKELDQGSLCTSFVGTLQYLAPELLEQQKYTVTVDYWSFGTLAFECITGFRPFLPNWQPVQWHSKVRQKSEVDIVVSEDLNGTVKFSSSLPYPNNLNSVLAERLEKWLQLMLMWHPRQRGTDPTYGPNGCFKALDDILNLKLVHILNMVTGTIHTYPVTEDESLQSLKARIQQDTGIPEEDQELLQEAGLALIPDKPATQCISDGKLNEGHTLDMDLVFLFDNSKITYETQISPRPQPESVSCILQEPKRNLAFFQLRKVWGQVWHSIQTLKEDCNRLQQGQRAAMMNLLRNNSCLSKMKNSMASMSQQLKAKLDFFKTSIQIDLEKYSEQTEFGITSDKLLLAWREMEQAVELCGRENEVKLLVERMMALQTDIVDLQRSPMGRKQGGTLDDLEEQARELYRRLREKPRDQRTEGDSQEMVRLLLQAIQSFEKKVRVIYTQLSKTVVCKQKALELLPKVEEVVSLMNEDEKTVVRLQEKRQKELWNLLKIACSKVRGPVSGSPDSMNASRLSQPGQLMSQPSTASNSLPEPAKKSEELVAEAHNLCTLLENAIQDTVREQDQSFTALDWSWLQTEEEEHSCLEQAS
# [5] = biological target: Macrophage colony-stimulating factor 1 receptor (Homo sapiens) (UniProt P07333); experiment: Selectivity interaction (KinomeScan (DiscoverX)) EUB0000045b CSF1R
# Chain of Macrophage colony-stimulating factor 1 receptor (Homo sapiens) (P07333 whole entry): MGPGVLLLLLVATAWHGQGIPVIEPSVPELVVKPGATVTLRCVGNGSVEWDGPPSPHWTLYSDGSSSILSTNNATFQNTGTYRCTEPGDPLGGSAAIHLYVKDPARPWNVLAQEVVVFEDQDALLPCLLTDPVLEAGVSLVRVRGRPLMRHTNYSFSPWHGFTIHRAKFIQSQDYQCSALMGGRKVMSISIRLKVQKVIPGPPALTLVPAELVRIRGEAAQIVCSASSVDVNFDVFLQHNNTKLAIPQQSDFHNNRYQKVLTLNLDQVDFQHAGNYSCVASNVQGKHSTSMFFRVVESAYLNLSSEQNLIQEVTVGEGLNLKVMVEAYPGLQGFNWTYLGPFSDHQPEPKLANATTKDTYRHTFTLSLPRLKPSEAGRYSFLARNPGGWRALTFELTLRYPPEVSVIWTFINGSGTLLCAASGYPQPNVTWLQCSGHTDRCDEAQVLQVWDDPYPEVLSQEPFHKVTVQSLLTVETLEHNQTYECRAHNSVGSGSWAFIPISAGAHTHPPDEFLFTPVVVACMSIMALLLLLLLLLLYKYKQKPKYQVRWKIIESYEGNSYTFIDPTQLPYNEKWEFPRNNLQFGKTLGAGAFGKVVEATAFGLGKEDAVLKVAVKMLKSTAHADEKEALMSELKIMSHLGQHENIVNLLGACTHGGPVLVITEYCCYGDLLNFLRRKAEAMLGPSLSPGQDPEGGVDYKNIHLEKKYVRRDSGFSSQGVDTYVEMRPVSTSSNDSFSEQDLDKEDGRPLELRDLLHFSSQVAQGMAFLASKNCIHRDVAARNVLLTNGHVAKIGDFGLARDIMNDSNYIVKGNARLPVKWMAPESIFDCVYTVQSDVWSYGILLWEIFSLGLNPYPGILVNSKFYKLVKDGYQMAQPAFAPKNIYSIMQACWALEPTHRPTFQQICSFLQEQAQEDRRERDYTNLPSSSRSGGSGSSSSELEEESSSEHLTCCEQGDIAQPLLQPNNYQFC
# [6] = biological target: Mitogen-activated protein kinase 8 (Homo sapiens, UniProt P45983); experiment: Selectivity interaction (KinomeScan (DiscoverX)) EUB0000045b MAPK8
# Chain of Mitogen-activated protein kinase 8 (P45983 whole entry): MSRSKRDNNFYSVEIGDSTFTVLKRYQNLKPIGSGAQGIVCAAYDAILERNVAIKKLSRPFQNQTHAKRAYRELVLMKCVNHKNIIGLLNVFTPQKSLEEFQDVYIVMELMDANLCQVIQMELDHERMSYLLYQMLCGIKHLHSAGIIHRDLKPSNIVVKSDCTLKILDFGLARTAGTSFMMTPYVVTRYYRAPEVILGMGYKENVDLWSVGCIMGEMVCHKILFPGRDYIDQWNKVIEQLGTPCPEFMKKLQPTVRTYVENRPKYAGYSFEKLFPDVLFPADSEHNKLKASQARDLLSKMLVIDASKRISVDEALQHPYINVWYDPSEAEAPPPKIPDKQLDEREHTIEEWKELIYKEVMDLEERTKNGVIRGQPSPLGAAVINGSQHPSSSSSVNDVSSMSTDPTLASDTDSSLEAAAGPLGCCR
# [7] = biological target: T1, Dual specificity mitogen-activated protein kinase kinase 6 (Homo sapiens); settings: at 10 µM
# [8] = biological target: Serine/threonine-protein kinase 16 (Homo sapiens, UniProt O75716); experiment: Selectivity interaction (ActivX KiNativ screen (kinase selectivity in THP-1 cell lysates)) EUB0000639a STK16; type: subcellular; settings: lysate, at 1 µM
# Chain of Serine/threonine-protein kinase 16 (O75716 whole entry): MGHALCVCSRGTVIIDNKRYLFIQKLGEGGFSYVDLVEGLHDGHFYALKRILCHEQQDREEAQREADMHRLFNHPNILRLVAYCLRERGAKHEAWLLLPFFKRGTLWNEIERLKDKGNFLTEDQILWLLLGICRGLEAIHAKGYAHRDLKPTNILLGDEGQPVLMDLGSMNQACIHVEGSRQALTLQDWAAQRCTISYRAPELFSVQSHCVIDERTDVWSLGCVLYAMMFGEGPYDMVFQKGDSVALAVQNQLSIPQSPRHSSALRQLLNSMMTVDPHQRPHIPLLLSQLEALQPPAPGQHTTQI
# [9] = biological target: Tyrosine-protein kinase Yes (Homo sapiens) (UniProt P07947); experiment: Selectivity interaction (Kinase panel (Invitrogen)) EUB0000639a YES1; settings: at 200 nM
# Chain of Tyrosine-protein kinase Yes (Homo sapiens) (P07947 2-543 limits assumed): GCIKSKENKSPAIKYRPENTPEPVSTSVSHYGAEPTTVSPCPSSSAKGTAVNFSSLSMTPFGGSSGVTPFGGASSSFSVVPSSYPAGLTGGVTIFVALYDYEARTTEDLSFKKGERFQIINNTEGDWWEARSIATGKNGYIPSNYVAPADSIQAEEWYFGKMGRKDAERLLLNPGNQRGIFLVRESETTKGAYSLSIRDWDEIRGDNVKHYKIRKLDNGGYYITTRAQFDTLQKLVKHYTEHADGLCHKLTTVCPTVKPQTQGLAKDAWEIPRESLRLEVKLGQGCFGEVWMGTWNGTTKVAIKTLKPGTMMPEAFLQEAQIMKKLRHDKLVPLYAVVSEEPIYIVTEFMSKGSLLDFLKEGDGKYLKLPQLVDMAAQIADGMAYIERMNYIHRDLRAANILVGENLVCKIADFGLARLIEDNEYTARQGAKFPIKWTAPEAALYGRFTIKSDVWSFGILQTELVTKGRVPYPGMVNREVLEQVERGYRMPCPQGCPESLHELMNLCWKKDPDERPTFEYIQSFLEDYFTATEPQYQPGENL
# [10] = biological target: T3, Mitogen-activated protein kinase 12 (Homo sapiens) (UniProt P53778); experiment: Selectivity interaction (Kinase screening (Upstate/Millipore)) EUB0000604a MAPK12
# T3 sequence (whole entry): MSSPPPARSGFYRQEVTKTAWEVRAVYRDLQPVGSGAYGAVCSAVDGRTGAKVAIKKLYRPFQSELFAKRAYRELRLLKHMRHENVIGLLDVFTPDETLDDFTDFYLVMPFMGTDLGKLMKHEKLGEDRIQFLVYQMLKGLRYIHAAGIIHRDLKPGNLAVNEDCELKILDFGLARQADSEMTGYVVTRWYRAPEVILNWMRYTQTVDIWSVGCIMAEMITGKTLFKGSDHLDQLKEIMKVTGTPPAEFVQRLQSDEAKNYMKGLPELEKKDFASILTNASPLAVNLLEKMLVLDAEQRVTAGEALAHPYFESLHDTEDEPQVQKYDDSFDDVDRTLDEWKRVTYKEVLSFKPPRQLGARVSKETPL
structure (smiles),measurement,setting,value
Nc1cnc(N2CCc3cc(S(=O)(=O)Nc4c(F)cc(Cl)cc4F)cc(N4CCCC4=O)c32)nc1 [TP-020n],% of control,[1],71%
same,% of inhibition,[2],18.2%
O[C@H]1CC[C@H](Nc2ncc3nc(Nc4c(F)cc(F)cc4F)n([C@H]4CCOC4)c3n2)CC1,% of control,[3],93%
N#Cc1cccc(-c2c[nH]c3ncnc(N4CCOCC4)c23)c1,% of control,[4],90%
C=CC(=O)Nc1cc(-n2c(=O)ccc3cnc4ccc(-c5ccc(NS(C)(=O)=O)cc5)cc4c32)ccc1C,% of control,[5]; at 1 µM,94%
same,% of control,[5]; at 10 µM,87%
same,% of control,[6]; at 1 µM,93%
same,% of control,[6]; at 10 µM,14%
Cc1cc([C@@H](C)Nc2ccccc2C(=O)O)c2nc(N3CCOCC3)cc(=O)n2c1 [AZD-6482],% of control,[7],92%
CC[C@@H]1[C@H](F)C(=O)N[C@@H]1COc1nccc2cc(C(N)=O)c(OC)cc12 [ZIMLOVISERTIB],% of inhibition,[8],58.6%
same,% of inhibition,[9],3.51%
Cc1cnc(Nc2ccc(F)cc2Cl)nc1-c1c[nH]c(C(=O)N[C@H](CO)c2cccc(Cl)c2)c1,% of inhibition,[10],56%
